Columns and labels:
GK rats [1] = assay: Improving effects on impaired glucose tolerance: oral glucose load in fasted GK rats, AUC of blood glucose; assay type: in vivo, rat; conditions: 2 g/kg glucose 1 hour later
Protocol: 6-week-old GK rats of (Charles River Japan, Inc.) which show IGT symptoms, but not diabetes mellitus, were fasted overnight. Compound A was orally administered at dosages of 10, 20 or 40 mg/kg. Two gram per kilogram of 50% (w/w) glucose solution was orally administered 1 hour after the administration of Compound A. The rats in the control group were administered orally 2 g/kg of 50% (w/w) glucose solution only.
The blood was collected from the tail vein just before and 0.5, 1, 2 and 4 hours after the glucose administration. Blood glucose level was determined by electric potential measurement method based on a glucose oxidase immobilized electrode using Glucoloader GXT (A&T Corp.).
On the abscissas, the time after the administration of Compound A was plotted, and on the ordinate, the blood glucose level of each individual was plotted. Each point was drawn with a straight line. The areas under the curves (AUCs) for the blood glucose levels of the graph obtained were calculated.
Using the areas under the curves (AUCs) for the blood glucose levels, the average value and standard error of each group were calculated. […]
The blood was collected from the tail vein just before and 0.5, 1 and 2 hours after the glucose administration. Blood glucose level was determined by electric potential measurement method based on a glucose oxidase immobilized electrode using Glucoloader GXT (A&T Corp.). […]

patients = patients treated with metformin; N Engl J Med 346, 393-403 (2002); cited from earlier work
GK rats [2] = assay: Preventative effects on diabetes mellitus in GK rats prior to the crisis of diabetes (drug mixed in food, 8 weeks); assay type: in vivo, rat
From the text: 6-week-old GK rats (Charles River Japan, Inc.) which were prior to the crisis of diabetes mellitus, were used. Compound A was mixed with food powder for the rat (F2, Funabashi Farm Co.,) at concentrations of 0.04%, 0.2% and 1.0% (w/w) and was orally administered to 4-6 rats per group for 8 weeks ad libitum (the mean amount of food intake per rat: 17.3 g/day).
The rats in the control group were fed with only food powder.
Blood from each rat was collected from the tail vein every 2 weeks, and the blood glucose level, plasma lactate level and plasma triglyceride level were determined. Blood glucose level was determined by electric potential measurement method based on glucose oxidase immobilized electrode using Glucoloader GXT (A&T Corp.). Plasma lactate level was determined using a spectrophotometric method with Lactate Reagent (Sigma-Aldrich Japan K. K.), and plasma triglyceride level was determined using a spectrophotometric method with Triglyceride E Test Wako (Wako Pure Chemical Industries, Ltd.). When the blood was collected after the drug administration period and the drug withdrawal period for 2 weeks, glycosylated hemoglobin ratio was also determined with DCA-2000 (Bayer Medical Co., Ltd.).

CCOc1cc2ncnc(Nc3cccc(-c4csc(C)n4)c3)c2cc1OCC [Compound B, (6,7-diethoxy-quinazolin-4-yl)-[3-(2-methyl-thiazol-4-yl)phenyl]amine]
AUCs of the blood glucose levels (GK rats [1]; GK rats fasted overnight, 100 mg/kg or 300 mg/kg oral, blood to 2 hours, FIG. 6): decreased by the treatment of Compound B in a dose-dependent manner

CN(C)C(=N)N=C(N)N [metformin]
patients with gastrointestinal symptoms such as diarrhea (patients): approximately 80%

CCOC(=O)[C@H](C)NP(=O)(N[C@@H](C)C(=O)OCC)c1ccc(-c2nc(N)sc2CC(C)C)o1 [Compound A, 2-amino-5-isobutyl-4-{2-[5-(N,N′-bis((S)-1-ethoxycarbonyl)ethyl)phosphonamido]furanyl}thiazole]
increase in the blood glucose level (GK rats [2]; 6-week-old GK rats, 0.04%, 0.2% and 1.0% (w/w) in food, oral, 8 weeks, FIG. 1): inhibited in a dose-dependent manner
glycosylated hemoglobin ratio (GK rats [2]; GK rats, after 8 weeks of 0.04%, 0.2% and 1.0% (w/w) in food, FIG. 2): decreased in a dose-dependent manner
gastrointestinal symptoms such as diarrhea (GK rats [2]; GK rats, all the groups examined): no animal suffered gastrointestinal symptoms such as diarrhea
blood glucose level after the drug administration period was terminated (GK rats [2]; GK rats, drug withdrawal period 2 weeks, FIG. 1): attained the same maximum level as that in the control group
glycosylated hemoglobin ratio after withdrawal of administration (GK rats [2]; GK rats, drug withdrawal period 2 weeks, FIG. 2): increased to the same level as that in the control group
plasma triglyceride level (GK rats [2]; GK rats, during the administration period, FIG. 3): not increased as much as those in the control rats or was prevented from increase
plasma lactate level (GK rats [2]; GK rats, during the administration period, versus control group, FIG. 4): not significantly different from the control group
AUCs of the blood glucose levels (GK rats [1]; GK rats fasted overnight, 10, 20 or 40 mg/kg oral, blood to 4 hours, FIG. 5): decreased by the treatment of Compound A in a dose-dependent manner

— patent US20050187194A1, “Preventive agents for diabetes mellitus” (SANKYO COMPANY LIMITED, priority 2002, published 2005)
